Experiment [1] relates to male NIH Swiss mice. Description: Nestlet shredding. In kind it is in vivo, mouse. Particulars: 30 min, rotorod for motor impairment. From the text: Mice naturally will construct nests of material available in their living environment. Since this behavior is obsessive in nature, it has been used to model OCD (Xia Li, Denise Morrow and Jeffrey M. Witkin, “Decreases in nestlet shredding of mice by serotonin uptake inhibitors: comparison with marble burying”, Psychopharmacology, submitted Jul. 14, 2003). House experimentally-naïve male, NIH Swiss mice (Harlan Sprague-Dawley, Indianapolis, Ind.) weighing between 28-35 g in groups of 12 for at least three days prior to testing in a vivarium with a 12 h light/dark cycle. Conduct experiments during the light cycle in an experimental room with normal overhead fluorescent lighting. Dose mice with vehicle or test compound and after a specified pretreatment interval (generally 30 min.), place the mice individually in a 17×28×12 cm high plastic tub with about 5 mm sawdust shavings on the floor along with a pre-weighed multi-ply gauze pad (51 mm square). After 30 min., weigh the remainder of the gauze pad not removed by the mouse. Determine the weight of the gauze used for nestlet construction by subtraction. Compare the results for test compound treated mice to the results for vehicle control treated mice with Dunnett's test.
Clinically effective OCD treatment standard compounds suppress nestlet shredding at doses that are devoid of motor-impairing effects as measured by the rotorod test. […]

Experiment [2] has as its system Wistar rats. Description: Schedule-induced polydipsia. The format is in vivo, rat. From the text:
Schedule-Induced Polydipsia
Food-deprived rats exposed to intermittent presentations of food will drink amounts of water that are far in excess of their normal daily intake and in excess of their intake when given all of their food at one time (Falk J L. “Production of polydipsia in normal rats by an intermittent food schedule”, Science 133: 195-196, (1961)). This excessive behavior is persistent and has been used to model OCD.
Maintain Wistar rats on a food restricted diet (to maintain 85% free feeding weight), but with free access to water. Train the rats in a behavioral testing chamber to press a lever to receive a food pellet under a fixed interval schedule, such that the rats are rewarded with a 45 mg food pellet the first time they press a lever after a 120 second interval has elapsed. The fixed interval is then reset to 120 seconds and the process repeated. Thus, during a 90 min. test session, the rats can earn a maximum of 45 pellets. The behavioral chamber is also equipped with a water bottle that is weighed before and after the session to determine the amount of water consumed.
Administer test compounds on Tuesdays and Fridays. […] Compare the rates of lever pressing and water consumption for each animal's performance during sessions after test compound treatment with that animal's performance during control sessions, expressed as a percent of the control rate. […]

Experiment [3] deals with male NIH Swiss mice. As to the kind of experiment: Marble burying assay (with rotorod). The format is in vivo, mouse. Particulars: marbles buried in 30 min, rotorod for motor impairment. From the text:
Marble burying in mice has been used to model anxiety disorders including obsessive-compulsive disorders (OCD) due to ethological study of the behavior (e.g. Gyertyan I. “Analysis of the marble burying response: Marbles serve to measure digging rather than evoke burying”, Behavioural Pharmacology 6: 24-31, (1995)) and due to the pharmacological effects of clinical standards (c.f., Njung'E K. Handley S L. “Evaluation of marble-burying behavior as a model of anxiety”, Pharmacology, Biochemistry & Behavior. 38: 63-67, (1991)); Borsini F., Podhorna J., and Marazziti, D. “Do animal models of anxiety predict anxiolytic effects of antidepressants?”, Psychopharmacology 163: 121-141, (2002)).
House experimentally-naïve male, NIH Swiss mice (Harlan Sprague-Dawley, Indianapolis, Ind.) weighing between 28-35 g in groups of 12 for at least three days prior to testing in a vivarium with 12 h light and dark cycles. Conduct experiments during the light cycle in a dimly lit experimental testing room. Dose mice with vehicle or test compound and, after a specified pretreatment interval (generally 30 min.), place each mouse individually on a rotorod (Ugo Basile 7650) operating at a speed of 6 revolutions/min. and observe for falling. […]
Clinically effective standard compounds suppress marble burying at doses that are devoid of motor-impairing effects as measured on the rotorod. […]

In experiment [4] the test system is male NIH Swiss mice. Particulars: compounds used to treat OCD, literature; cited from earlier work.
Experiment [5] has as its system Wistar rats. Particulars: clinically effective OCD treatment standard compounds; cited from earlier work.

Molecules are shown by their SMILES.

Consider `C[C@H](N)Cc1ccccc1` [d-amphetamine], for which the Nestlet shredding result with male NIH Swiss mice [1] is recorded as “decreases nestlet shredding only at doses that produce motoric side effects”. Besides, the “Effect on schedule-induced polydipsia with co-administered 5-HT2C antagonist” value in the experiment on Wistar rats [2] (co-administration of the 5-HT2C receptor antagonist) is “not prevented by the 5HT2C receptor antagonist”. Moreover, the “Schedule-induced polydipsia (water consumption)” value in the experiment on Wistar rats [2] (food-restricted rats, 90 min session) was “decreases excessive drinking only at behaviorally stimulating doses”.

For `CN(C)CCCN1c2ccccc2Sc2ccc(Cl)cc21` [chlorpromazine], in the experiment with male NIH Swiss mice [3], the Marble burying entry is recorded as “decrease marble burying only at doses that also disrupt rotorod performance”.

For `CNCCC(Oc1ccc(C(F)(F)F)cc1)c1ccccc1` (stereo not shown) [fluoxetine], the “Marble burying (clinical standards)” value in the experiment with male NIH Swiss mice [4] is “decrease burying”. Also, the “Schedule-induced polydipsia (clinical standards)” value in the experiment with Wistar rats [5] is given as “suppress schedule-induced polydipsia without producing notable changes in motor patterns, food intake, or behavior the following day”.

As for `CN(C)CCCN1c2ccccc2CCc2ccc(Cl)cc21` [chlomipramine], in the experiment on Wistar rats [5], the “Schedule-induced polydipsia (clinical standards)” value was “suppress schedule-induced polydipsia without producing notable changes in motor patterns, food intake, or behavior the following day”.

The values above are taken from patent publication US8680091B2, “6-arylalkylamino-2,3,4,5-tetrahydro-1H-benzo[d]azepines as 5-HT2C receptor agonists” (Eli Lilly and Company, priority 2005, dated 2014).
